In patent publication US11136297B2, “Compositions and methods for treating cancer” (THE REGENTS OF THE UNIVERSITY OF CALIFORNIA, priority 2016, dated 2021):
“Also recorded” adds a separate entry of the source.

Tests used:
[1] = biological target: T1, H-Ras(M72C) GDP binding to SOScat (Homo sapiens, UniProt P01112, M72C); test: Ras GDP in vitro pull down by His6 tagged SOScat
T1 construct: and H-Ras (residues 1-166) were transformed into Escherichia coli; His6; made in house; host or cells: Escherichia coli BL21(DE3)
Experimental: Ras GDP In Vitro Pull Down Assay by His6 Tagged SOS^CAT
This experiment was created based on a procedure published in Hall et al., 2001. For each SOS^CAT in vitro pull down the total volume was 500 μL. Each reaction had the following final composition: Either 20, 80, 200, 400, or 800 nM Ras GDP (from 0.2 mg/mL Ras stock), 75 nM BSA (2.5 μg, 5 μL of 0.5 mg/mL BSA stock), 200 nM of His6-SOS^CAT (6 μg, 3 μL of diluted 0.2 mg/mL stock of His6-SOS^CAT), and SOS^CAT Pull Down Buffer to volume (20 mM Tris (pH 7.6), 50 mM NaCl, 5 mM EDTA, 1% Triton X-100, 20 mM imidazole). Samples were then mixed by gentle rotation at 4° C. for 30 min. While equilibrating, add 50 μL Ni-NTA slurry (Qiagen) to a cellulose acetate spin cup and spin at 5,000 rpm on a tabletop centrifuge for 30 seconds. Wash the beads with 400 μL of SOS^CAT Pull Down Buffer to wash away bead storage buffer. Before adding each pull down solution, take 10 μL and save as a loading control sample. To each spin cup filled with washed Ni-NTA beads, add the remaining equilibrated pull down solution, seal the spin cup with parafilm and let rotate at 4° C. for 30 more minutes. After mixing, centrifuge the sample for 30 seconds at 5,000 rpm. Toss flow through. Wash the beads×5 with 400 μL of SOS^CAT Pull Down Buffer. After last wash, centrifuge one last time to remove any excess buffer stuck to the beads. To each cup, add 50 μL of 5×SDS loading buffer and mix by vortexing. Let the buffer sit on the beads for 5 minutes and then elute into a fresh tube by centrifuging at 5000 rpm for 1.5 minutes. Load 10 μL of each loading control sample and 25 μL of each eluted pull down onto a SDS-PAGE gel and transfer to a nitrocellulose blot for Western Blot analysis. Block with 5% BSA TBS buffer and then blot with pan Ras primary antibody at a 1:500 dilution in 5% BSA in TBST (Cell Signaling #3965). Blots were read out using LICOR compatible secondary antibodies and quantified. The largest input signal was normalized to one for each protein construct and each pull-down signal (i.e. 20 nM, 80 nM, 200 nM, 400 nM, and 800 nM respectively) was reported relative to that maximum signal. Thus, normalized pull-down signals represent the proportion of Ras pulled down relative to the maximum blot signal detected for that particular protein construct.

1-169 K-Ras(M72C) GDP = biological target: T2, 1-169 K-Ras(M72C) GDP (Homo sapiens, UniProt P01116, M72C); test: Disulfide tethering screen, percent modification by intact protein mass spectrometry; assay type: binding; details: screening βME 1 mM
T2 construct: Untagged recombinant 1-169 K-Ras(M72C) GDP; His6 (cleaved yes); made in house; host or cells: Escherichia coli BL21(DE3)
Source text: In some embodiments, a library of disulfide compounds may be screened against a cysteine-containing protein in the presence of a reducing agent such as β-mercaptoethanol (BME). Compounds with complementary binding contacts with a region of the protein near the cysteine may shift the disulfide exchange equilibrium away from BME modification of the cysteine thiol and enhance the ratio of the hit ligand bound to the cysteine. The resulting mass change of the protein can be readily detected by mass spectrometry, and the percentage of modified protein can be used as a measure of potency. Compounds which exchange with the cysteine without conferring affinity should exchange with reducing agent equally well and will not shift the equilibrium toward protein modification. The potency of various compounds at a given concentration of BME may be compared by calculating the dose-response 50 (DR50), which is the concentration of compound at which the protein becomes 50% modified.
A tethering library of 960 disulfides were screened against 1-169 K-Ras(M72C) GDP using intact protein mass spectrometry to monitor percent modification (See Methods, and FIG. 37). […] To better prioritize tethering fragments, a βME50 value (the concentration of βME needed to reduce disulfide fragment modification to 50%) was determined for each compound. […]

[2] = biological target: T3, H-Ras(M72C) GppNHp binding to Raf-1-RBD (Homo sapiens, UniProt P01112, M72C); test: Raf-1-RBD pull-down of labeled H-Ras(M72C) GppNHp; details: H-Ras(M72C) GppNHp pre-labeled with compound; various concentrations of H-Ras
T3 construct: and H-Ras (residues 1-166) were transformed into Escherichia coli; His6; made in house; host or cells: Escherichia coli BL21(DE3)
Experimental: (§1) FIGS. 29A-29D. […] FIG. 29D: Reconstruction of Ras cycle is achieved by inducing nucleotide exchange of 100 nM Ras by various concentrations of SOS^cat for either 1 or 2 hours and subsequent pull-down by Raf-1-RBD.
(§2) FIGS. 33A-33D. […] In FIG. 33B) through FIG. 33D), normalized pull-down signals are shown below the blot. S. E. M for each signal, number of replicates, and […] for each comparative Standard T-Test are summarized herein (see Tables 33B, 33C, and 33D). […] Comparative statistics were done for normalized pull-down signals between protein constructs of the same condition (i.e. in FIG. 33B) and FIG. 33C), column 1 for unlabeled and 1 for labeled protein, 2 for unlabeled and 2 for labeled, and so on were statistically compared, and in FIG. 33D) only the +SOS^cat and +GppNHp lanes were compared across protein constructs). FIG. 33A) Cartoon representation of pull down protocol. […] Reported values are quantified pull-down signals normalized to input. FIG. 33B) Cartoon representation of pull down protocol. […] FIG. 33C) Cartoon representation of pull down protocol. […] FIG. 33D) Cartoon representation of pull down protocol. Ras activation is achieved by catalyzing nucleotide exchange by SOS^cat and indirectly reading out activated Ras by subsequent pull down by Raf-1-RBD.

[3] = biological target: T4, H-Ras(M72C) activation by SOScat (Homo sapiens, UniProt P01112, M72C); test: SOScat catalyzed nucleotide exchange read out by Raf-1-RBD pull-down; assay type: biochemical
T4 construct: and H-Ras (residues 1-166) were transformed into Escherichia coli; His6; made in house; host or cells: Escherichia coli BL21(DE3)
Experimental: as §1, §2

Which “Normalized Averaged Pull Down (SOS PD Assay)” value (from here on “Normalized Averaged Pull Down”) ([1]; H-Ras(M72C) 2C07, [Ras] printed 200 nM, input normalized 1.00) does the source give for `COc1ccc(-n2ncc(C(=O)NCCCSSCCN(C)C)c2C(F)(F)F)cc1` [Compound 2C07, N-(3-((2-(dimethylamino)ethyl)disulfanyl)propyl)-1-(4-methoxyphenyl)-5-(trifluoromethyl)-1H-pyrazole-4-carboxamide] here?
Its value is 0.09.

What about the “Normalized Averaged Pull Down” value ([1]; H-Ras(M72C) 2C07, [Ras] 20 nM) of the same compound?
Its value is 0.002.

What about the “Normalized Averaged Pull Down” value ([1]; H-Ras(M72C) 2C07, [Ras] 80 nM) of the same compound?
The value was 0.01.

What about the “Normalized Averaged Pull Down” value ([1]; H-Ras(M72C) 2C07, [Ras] 200 nM) of the same compound?
Its value is 0.03.

And the “Normalized Averaged Pull Down” value ([1]; H-Ras(M72C) 2C07, [Ras] 400 nM)?
Its value is 0.06.

What about the percent modification (1-169 K-Ras(M72C) GDP) of the same compound?
The percent modification was 69.7%.

And the Raf-1-RBD binding [2]?
The Raf-1-RBD binding was “does not inhibit Raf binding; also recorded: permits Raf-1-RBD binding”.

What about the “SOScat catalyzed nucleotide exchange” value [3] of the same compound?
The value was “inhibits activation of H-Ras by SOS^cat; also recorded: inhibits SOS^cat catalyzed nucleotide exchange”.
